Laboratory results as given in patent publication US5217961A, “Condensed quinoline system N-glycosides” (Mect Corporation, priority 1988, dated 1993).

Columns and labels:
P-388 = test: Effect on prolongation of life span in cancer implanted mouse (P-388); assay type: in vivo, CDF mouse; details: day 1 and day 5, P-388 i.p.; for responders at 200 mg/kg / responders at 400 mg/kg / responders at 100 mg/kg / cure (mice cured / mice in group) / responders at 12.5 mg/kg / responders at 25 mg/kg / responders at 50 mg/kg: 6 mice/group; for responders at 200 mg/kg / responders at 400 mg/kg / responders at 100 mg/kg / responders at 12.5 mg/kg / responders at 25 mg/kg / responders at 50 mg/kg: read-out: cure (mice cured / mice in group) (converted)
Procedure: Animal used: CDF mouse (6 mice/group)
Number of implanted cells: 10^6 cells/mouse
Day of administration: Day 1 and Day 5
Dosage: LD50 or 400 mg/kg/day at the maximum

KB cells = test: Function for inhibiting multiplication of KB cell (in vitro test); assay type: cell-based, human; details: compound added day 1, cells counted day 4, effective when ED50 < 4 μg/ml, 4320 min
Procedure: KB cells, carcinomatous cell tumors, were transferred to in vitro floatation incubator systems, and added respectively with compounds of Examples 1 to 33. The results of cultivation added with these compounds were compared with the results of the control which was not added with any compound.
Cell used: KB Cell (Originating from human mouth epidermal cancer)
Culture medium: Eagles minimal essential medium (MEM) supplemented with 10% calf serum
Cultivation: 37° C. carbon dioxide gas incubator (5% CO2)
Day 0: KB cells were diluted in the culture medium to adjust the KB cell density to 2×10^4 /ml. Three ml of the cell suspension was inoculated in each of 60 mm plastic dishes. Two dishes per standard dosage were used.
Day 1: Test compound was added to the medium so that the final concentrations were set to 100, 30, 10, 3 and 1 μg/ml.
Day 4: Cells were scraped off from the dish using trypsin, and the cell number was countered using a Corter counter.
In generally accordance with the stipulations set forth by the National Cancer Institute (NCI) U.S.A., the concentration of compound necessary for exerting 50% growth inhibition (ED50) compared to the contral was determined.

[1] = J. Med. Chem. vol.17, 922 (1974); cited from earlier work
[2] = Mus musculus, P388, ip, 200 mg/kg
[3] = Mus musculus, P388, ip, 400 mg/kg
[4] = Mus musculus, P388, ip, 100 mg/kg
[5] = 12.5 mg/kg, effective when T/C >= 120%
[6] = 25 mg/kg, effective when T/C >= 120%
[7] = 50 mg/kg, effective when T/C >= 120%
[8] = Mus musculus, P388, ip, 12.5 mg/kg
[9] = Mus musculus, P388, ip, 25 mg/kg
[10] = Mus musculus, P388, ip, 50 mg/kg
[11] = Mus musculus, P388, ip, 50 mg/kg, effective when T/C >= 120%, read-out: Ratio of Life Prolongation (%) (T/C %)

`COc1cc(NS(C)(=O)=O)ccc1Nc1c2ccccc2nc2c1sc1cccc(C)c12` [Compound 33, 6-(4-methanesulfonamide-2-methoxyanilino)-1-methylbenzothieno[3,2-b]quinoline] gave a responders at 200 mg/kg (P-388; [2]) of 16.7% and a responders at 400 mg/kg (P-388; [3]) of 16.7%.
`COc1cc(NS(C)(=O)=O)ccc1Nc1c2c(nc3c(C)cccc13)-c1c(C)cccc1C2` [Compound 1, 6-4-(methanesulfonamide-2-methoxyanilino)-1,10-dimethylindeno[3,2-b]quinoline] gave a responders at 100 mg/kg (P-388; [4]) of 16.7% and a responders at 200 mg/kg (P-388; [2]) of 16.7%.
In the case of `COc1cc(NS(C)(=O)=O)ccc1Nc1c2ccccc2nc2c1[nH]c1ccc(NC3OC(CO)C(O)C(O)C3O)cc12` (centres unmarked) [Compound 24, N-{4-[(7-(glycosyl-1-amino)-10H-indolo[3,2-b]quinoline-11-yl)amino]-3-methoxyphenyl} methanesulfonamide], the “Conc. (ED50), concentration necessary for exerting 50% growth inhibition of KB cells” value (KB cells) is reported as under 0.3 µg/mL, the “cure (mice cured / mice in group)” value (P-388; 12.5 mg/kg) is reported as 2/6 and the “Ratio of Life Prolongation (%) (T/C %)” value (P-388; [5]) is reported as 213%. The “Ratio of Life Prolongation (%) (T/C %)” value (P-388; [6]) was 145% and the “Ratio of Life Prolongation (%) (T/C %)” value (P-388; [7]) was 90%.
Compound `COc1cc(NS(C)(=O)=O)ccc1Nc1c2cccc(C)c2nc2c1[nH]c1cc(C)ccc12` [Compound 11, 6-(4-methanesulfonamide-2-methoxyanilino)-3,10-dimethylindolo[3,2-b]quinoline] has a responders at 12.5 mg/kg (P-388; [8]) of 16.7%, a responders at 25 mg/kg (P-388; [9]) of 33.3% and a responders at 50 mg/kg (P-388; [10]) of 16.7%.
`COc1cc(OC(C)=O)ccc1Nc1c2ccccc2nc2c1[nH]c1ccccc12` [Compound 21] gave a responders at 50 mg/kg (P-388; [10]) of 16.7% and a response vs control in vivo at 100 mg/kg (P-388; Mus musculus, P388, ip, 100 mg/kg, effective when T/C >= 120%, read-out: Ratio of Life Prolongation (%) (T/C %)) of 212%.
With `COc1cc(NS(C)(=O)=O)ccc1Nc1c2cccc(C)c2nc2c1[nH]c1ccccc12` [Compound 9] the responders at 25 mg/kg (P-388; [9]) was 16.7% and the responders at 50 mg/kg (P-388; [10]) was 66.7%.
`COc1cc(NS(C)(=O)=O)ccc1Nc1c2ccccc2nc2c1[nH]c1ccc(N)cc12` [Compound 22, 2-amino-6-(4-methanesulfonamide-2-methoxyanilino)indolo[3,2-b]quinoline] showed a responders at 50 mg/kg (P-388; [10]) of 16.7% and a response vs control in vivo at 50 mg/kg (P-388; [11]) of 242%.
`COc1cc(NS(C)(=O)=O)ccc1Nc1c2ccccc2nc2c1[nH]c1ccc(NC(C)=O)cc12` [Compound 25] showed a response vs control in vivo at 50 mg/kg (P-388; [11]) of 184%.
For “6-(4-methanesulfonamide-anilino)-indeno[3,2-b]quinoline [Compound 5]”, the “Conc. (ED50), concentration necessary for exerting 50% growth inhibition of KB cells” value (KB cells) was under 0.3 µg/mL, the “Ratio of Life Prolongation (%) (T/C %)” value (P-388; [6]) was 140% and the “Ratio of Life Prolongation (%) (T/C %)” value (P-388; [7]) was 135%. The “Ratio of Life Prolongation (%) (T/C %)” value (P-388; 100 mg/kg, effective when T/C >= 120%) was 163%, the “Ratio of Life Prolongation (%) (T/C %)” value (P-388; 200 mg/kg, effective when T/C >= 120%) was 172% and the “Ratio of Life Prolongation (%) (T/C %)” value (P-388; 400 mg/kg, effective when T/C >= 120%) was 165%.
With `COc1cc(NS(C)(=O)=O)ccc1Nc1c2ccccc2nc2c1[nH]c1ccc(NC3OC(COC(C)=O)C(OC(C)=O)C(OC(C)=O)C3OC(C)=O)cc12` (centres unmarked) [Compound 23, N-{4-[(7-(2,3,4,6-tetra-O-acetylglycosyl-1-amino)-10H-indolo[3,2-b]quinoline-11-yl)amino]-3-methoxyphenyl} methanesulfonamide] the “Conc. (ED50), concentration necessary for exerting 50% growth inhibition of KB cells” value (KB cells) was under 0.3 µg/mL, the “cure (mice cured / mice in group)” value (P-388; 12.5 mg/kg) was 2/6 and the “Ratio of Life Prolongation (%) (T/C %)” value (P-388; [5]) was 300%. For the same compound, the “cure (mice cured / mice in group)” value (P-388; 25 mg/kg) was 1/6, the “Ratio of Life Prolongation (%) (T/C %)” value (P-388; [6]) was 148% and the “Ratio of Life Prolongation (%) (T/C %)” value (P-388; [7]) was 58%.
`COc1cc(NS(C)(=O)=O)ccc1Nc1c2cccc(C)c2nc2c1oc1cc(C)ccc12` [Compound 29, 6-(4-methanesulfonamide-2-methoxyanilino)-3,10-dimethylbenzofurano[3,2-b]quinoline] showed a responders at 100 mg/kg (P-388; [4]) of 16.7% and a responders at 200 mg/kg (P-388; [2]) of 16.7%.
Work on `COc1cc(O)ccc1Nc1c2ccccc2nc2c1[nH]c1ccccc12` [Compound 20] yielded a responders at 25 mg/kg (P-388; [9]) of 16.7% and a response vs control in vivo at 50 mg/kg (P-388; [11]) of 202%.
Compound `COc1cc(NS(C)(=O)=O)ccc1Nc1c2cccc(C)c2nc2c1[nH]c1cccc(C)c12` [Compound 10, 6-(4-methanesulfonamide-2-methoxyanilino)-1,10-dimethylindolo[3,2-b]quinoline] has a responders at 100 mg/kg (P-388; [4]) of 16.7%.
For `COc1cc(NS(C)(=O)=O)ccc1Nc1c2ccccc2nc2c1[nH]c1ccc(F)cc12` [Compound 19, 2-fluoro-6-(4-methanesulfonamide-2-methoxyanilino)indolo[3,2-b]quinoline], the responders at 12.5 mg/kg (P-388; [8]) was 50%, the responders at 25 mg/kg (P-388; [9]) was 33.3% and the response vs control in vivo at 50 mg/kg (P-388; [11]) was 93%.
`COc1cc(NS(C)(=O)=O)ccc1Nc1c2ccccc2nc2c1[nH]c1ccc([N+](=O)[O-])cc12` [Compound 18, 6-(4-methanesulfonamide-2-methoxyanilino)-2-nitroindolo[3,2-b]quinoline] gave a responders at 12.5 mg/kg (P-388; [8]) of 16.7%, a response vs control in vivo at 12.5 mg/kg (P-388; Mus musculus, P388, ip, 12.5 mg/kg, effective when T/C >= 120%, read-out: Ratio of Life Prolongation (%) (T/C %)) of 164% and a response vs control in vivo at 25 mg/kg (P-388; Mus musculus, P388, ip, 25 mg/kg, effective when T/C >= 120%, read-out: Ratio of Life Prolongation (%) (T/C %)) of 131%. It also gave a response vs control in vivo at 50 mg/kg (P-388; [11]) of 70%.
Compound `CN(C)c1cc(NS(C)(=O)=O)ccc1Nc1c2c(nc3ccccc13)-c1ccccc1C2` [Compound 6, 6-(4-methanesulfonamide-2-dimethylaminoanilino)-indeno[3,2-b]quinoline] has a responders at 200 mg/kg (P-388; [2]) of 33.3%.
In the case of `COc1cc(NS(C)(=O)=O)ccc1Nc1c2cccc(C)c2nc2c1oc1ccccc12` [Compound 27, 6-(4-methanesulfonamide-2-methoxyanilino)-10-methylbenzofurano[3,2-b]quinoline], the responders at 200 mg/kg (P-388; [2]) is reported as 16.7%, the responders at 400 mg/kg (P-388; [3]) is reported as 33.3% and the response vs control in vivo at 400 mg/kg (P-388; Mus musculus, P388, ip, 400 mg/kg, effective when T/C >= 120%, read-out: Ratio of Life Prolongation (%) (T/C %)) is reported as 310%.
In the case of `COc1cc(NS(C)(=O)=O)ccc1Nc1c2c(nc3c(C)cccc13)-c1ccccc1C2` [Compound 2, 6-4-(methanesulfonamide-2-methoxyanilio)-10-methylindeno[3,2-b]quinoline], the responders at 100 mg/kg (P-388; [4]) is reported as 16.7%.
In the case of `COc1cc(NS(C)(=O)=O)ccc1Nc1c2ccccc2nc2ccccc12` [Amsacrine, N-[4-(9-acridylamino)-3-methoxyphenyl)methanesulfonamide], the carcinostatic function [1] is given as “highest carcinostatic function”.
`COc1cc(NS(C)(=O)=O)ccc1Nc1c2ccccc2nc2c1[nH]c1ccc(Cl)cc12` [Compound 12] gave a responders at 25 mg/kg (P-388; [9]) of 16.7% and a responders at 50 mg/kg (P-388; [10]) of 16.7%.
Work on `COc1cc(NS(C)(=O)=O)ccc1Nc1c2ccccc2nc2c1oc1cc(C)ccc12` [Compound 31, 6-(4-methanesulfonamide-2-methoxyanilino)-3-methylbenzofurano[3,2-b]quinoline] yielded a responders at 200 mg/kg (P-388; [2]) of 16.7% and a responders at 400 mg/kg (P-388; [3]) of 16.7%.
`COc1cc(NS(C)(=O)=O)ccc1Nc1c2ccccc2nc2c1[nH]c1ccc(NS(C)(=O)=O)cc12` [Compound 26, 2-methanesulfonamide-6-(4-methanesulfonamide-2-methoxyanilino)indolo[3,2-b]quinoline] gave a response vs control in vivo at 50 mg/kg (P-388; [11]) of 143%.
Compound `COC(=O)Nc1ccc(Nc2c3ccccc3nc3c2[nH]c2ccccc23)c(OC)c1` [Compound 14] has a responders at 100 mg/kg (P-388; [4]) of 16.7%.
In the case of `COc1cc(NC(C)=O)ccc1Nc1c2ccccc2nc2c1[nH]c1ccccc12` [Compound 15], the responders at 100 mg/kg (P-388; [4]) is reported as 16.7%.
`COc1cc(NS(C)(=O)=O)ccc1Nc1c2ccccc2nc2c1[nH]c1cccc(C)c12` [Compound 16, 6-(4-methanesulfonamide-2-methoxyanilino)-1-mehtylindolo[3,2-b]quinoline] showed a responders at 12.5 mg/kg (P-388; [8]) of 33.3% and a responders at 25 mg/kg (P-388; [9]) of 33.3%.
For `COc1cc(NS(C)(=O)=O)ccc1Nc1c2cccc(C)c2nc2c1oc1cccc(C)c12` [Compound 28, 6-(4-methanesulfonamide-2-methoxyanilino)-1,10-dimethylbenzofurano[3,2-b]quinoline], the response vs control in vivo at 200 mg/kg (P-388; Mus musculus, P388, ip, 200 mg/kg, effective when T/C >= 120%, read-out: Ratio of Life Prolongation (%) (T/C %)) was 103%.
